Assay results: PubChem BioAssay (NCI)
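Step 1: Grow cells in 96-well plates. Step 2: Expose to compound for 48 hours at 5 concentrations. Step 3: Interpolate endpoints linearly; if unreached, use highest concentration. At the TGI there is no net growth.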

Legend:
Assay in all cases: DTP human tumour cell line panel, 48 h
SF-268 CNS = system: SF-268 CNS
A498 renal = system: A498 renal
SK-MEL-5 melanoma = system: SK-MEL-5 melanoma
HCT-15 colon = system: HCT-15 colon
NCI-H460 lung = system: NCI-H460 lung
M14 melanoma = system: M14 melanoma
OVCAR-4 ovarian = system: OVCAR-4 ovarian
SNB-19 CNS = system: SNB-19 CNS
PC-3 prostate = system: PC-3 prostate
T-47D breast = system: T-47D breast
EKVX NSCLC = system: EKVX NSCLC
786-0 renal = system: 786-0 renal
HOP-62 NSCLC = system: HOP-62 NSCLC
TK-10 renal = system: TK-10 renal
KM12 colon = system: KM12 colon
MDA-N = system: MDA-N
COLO 205 colon = system: COLO 205 colon
MOLT-4 leukemia = system: MOLT-4 leukemia
MALME-3M melanoma = system: MALME-3M melanoma
NCI/ADR-RES ovarian = system: NCI/ADR-RES ovarian
SN12C renal = system: SN12C renal
HCC-2998 colon = system: HCC-2998 colon
U251 CNS = system: U251 CNS
SR leukemia = system: SR leukemia
HOP-92 NSCLC = system: HOP-92 NSCLC
NCI-H23 lung = system: NCI-H23 lung
CCRF-CEM leukemia = system: CCRF-CEM leukemia
SW-620 colon = system: SW-620 colon
SK-MEL-28 melanoma = system: SK-MEL-28 melanoma
LOX IMVI melanoma = system: LOX IMVI melanoma
OVCAR-5 ovarian = system: OVCAR-5 ovarian
SNB-75 CNS = system: SNB-75 CNS
NCI-H226 lung = system: NCI-H226 lung
IGROV1 ovarian = system: IGROV1 ovarian
CAKI-1 renal = system: CAKI-1 renal
UACC-62 melanoma = system: UACC-62 melanoma
K-562 leukemia = system: K-562 leukemia
RXF 393 renal = system: RXF 393 renal
HL-60(TB) leukemia = system: HL-60(TB) leukemia
HT29 colon = system: HT29 colon
ACHN renal = system: ACHN renal
MCF7 breast = system: MCF7 breast
OVCAR-8 ovarian = system: OVCAR-8 ovarian
SK-MEL-2 melanoma = system: SK-MEL-2 melanoma
MDA-MB-231 breast = system: MDA-MB-231 breast
DU-145 prostate = system: DU-145 prostate
SK-OV-3 ovarian = system: SK-OV-3 ovarian
NCI-H522 lung = system: NCI-H522 lung
MDA-MB-435 = system: MDA-MB-435
HCT-116 colon = system: HCT-116 colon
A549 NSCLC = system: A549 NSCLC
SF-295 CNS = system: SF-295 CNS
UACC-257 melanoma = system: UACC-257 melanoma
SF-539 CNS = system: SF-539 CNS
OVCAR-3 ovarian = system: OVCAR-3 ovarian
RPMI-8226 leukemia = system: RPMI-8226 leukemia
BT-549 breast = system: BT-549 breast
HS 578T breast = system: HS 578T breast
UO-31 renal = system: UO-31 renal

Measured: TGI

O=[p+]1c2ccccc2[nH]c2ccccc21
not listed: RPMI-8226 leukemia | BT-549 breast | HS 578T breast | UO-31 renal
> 100 µM: all other assays above

S=C(c1c[nH]c2ccccc12)N1CCCCC1
not listed: OVCAR-4 ovarian | T-47D breast | HCC-2998 colon | HOP-92 NSCLC | SNB-75 CNS | NCI-H522 lung | A549 NSCLC | UO-31 renal
> 100 µM: all other assays above

CC(=O)OC1[C@@H](OC(C)=O)CN(OCc2ccccc2)C[C@H]1OC(C)=O (stereo partly drawn)
76.4 µM: SK-OV-3 ovarian
not listed: MALME-3M melanoma
> 100 µM: all other assays above

Brc1ccc(-c2cc(-c3ccc4c(c3)OCO4)c(-c3cccs3)n2Cc2ccccc2)cc1
not listed: A498 renal | MALME-3M melanoma | HOP-92 NSCLC | NCI-H23 lung | LOX IMVI melanoma | OVCAR-5 ovarian | NCI-H226 lung | NCI-H522 lung | OVCAR-3 ovarian | BT-549 breast
> 100 µM: all other assays above
